How the values were obtained:
[1] = tested on: metastatic colorectal carcinoma; details: modulation of 5-FU with LV; cited from earlier work
colorectal cancer = details: Phase IIb; cited from earlier work
pancreas cancer = details: combined with 5-FU; cited from earlier work
[2] = tested on: stage IV colorectal cancer; assay: ISO-CC-005 open-label Phase I/II dose cohort trial of [6R]-MTHF with 5-FU (response per RECIST 1.1, adverse events); format: in vivo, human
Text: As used herein, the term ORR shall refer to the Objective Response Rate, ie. the proportion of patients with reduction in tumor burden of a predefined amount. […] (Note: the appearance of one or more new lesions is also considered progression). Stable Disease (SD): • Neither sufficient shrinkage to qualify for PR nor sufficient increase to qualify for PD, taking as reference the smallest sum diameters while on study. ([…], Schwartz […], Ford R, et al. New response evaluation criteria in solid tumours: revised RECIST guideline (version 1.1). Eur J Cancer. 2009 January; 45(2):228-47) […] A maximum of 63 Stage IV CRC patients eligible for 1st, 2nd or 3rd line treatment are planned to be enrolled in this study disposed as follows: three to six patients in each dose cohort, and three additional patients in one dose cohort in each treatment arm according to the following study design (Table 1). [table] […] Dosing: Rapid i.v. bolus injections at a fixed dose of 30, 60, 120 or 240 mg/m^2, will be administered approximately 30 minutes after administration of 5-FU on Day 1 and Day 2 in each treatment cycle in all ^dose cohorts of the study (i.e. regardless of treatment arm). The regimen will be repeated every second week for up to eight (8) cycles, i.e. up to sixteen (16) weeks. 5-FU (5-fluorouracil) is formulated as injection solution. Dosing: 5-FU will be administered as i.v. bolus injections on Day 1 and Day 2 in each treatment cycle. In Arm #2 and Arm #3 of the study, 5-FU will be administered approximately 60 minutes after start of Oxaliplatin or Irinotecan administration, respectively (see description below). The regimen will be repeated every second week for up to eight (8) cycles, i.e. up to sixteen (16) weeks. ISO-CC-005 is an open clinical phase I/II tolerability and dose definition study designed to evaluate safety and define the [6R]-MTHF dose for continued development. It evaluates four doses of [6R]-MTHF in combination with 5-FU with or without the different combinations of irinotecan or oxaliplatin and bevacizumab in patients with metastatic Colorectal Cancer using 4 different protocols: • MOD+5-FU: [6R]-MTHF in combination with 5-FU only, similar to Nordic FLV protocol • MOD+[…] in combination with 5-FU and Irinotecan, similar to Nordic FLIRI protocol • MOD+FLOX: [6R]-MTHF in combination with 5-FU and Oxaliplatin, similar to Nordic FLOX protocol • MOFOX: [6R]-MTHF in combination with 5-FU and Oxaliplatin, similar to FOLFOX-6 protocol The patients belong to several treatment lines ranging from first to third and even fifth lines. The results of the study are regularly assessed, and the results from the group of patients undergoing 1st line treatment and partially the group of patients undergoing 2nd, 3rd and 5th line treatment have previously (in August 2017) and again (December 2017) been analyzed. The clinical study is still ongoing. […] (see FIG. 2). Four (4) 1st line patients could not be followed for the additional 8 weeks' treatment due to study protocol formalities. No further 1st line patients had been analysed at this point.

Thymidylate Synthase = Thymidylate Synthase (Lacticaseibacillus casei, UniProt P00469); details: cited from earlier work
[3] = 1st line patients, 8 weeks' treatment
[4] = 30 patients, 1st, 2nd, 3rd and 5th line, after 8 weeks' treatment

Chain of Thymidylate Synthase (P00469 whole entry): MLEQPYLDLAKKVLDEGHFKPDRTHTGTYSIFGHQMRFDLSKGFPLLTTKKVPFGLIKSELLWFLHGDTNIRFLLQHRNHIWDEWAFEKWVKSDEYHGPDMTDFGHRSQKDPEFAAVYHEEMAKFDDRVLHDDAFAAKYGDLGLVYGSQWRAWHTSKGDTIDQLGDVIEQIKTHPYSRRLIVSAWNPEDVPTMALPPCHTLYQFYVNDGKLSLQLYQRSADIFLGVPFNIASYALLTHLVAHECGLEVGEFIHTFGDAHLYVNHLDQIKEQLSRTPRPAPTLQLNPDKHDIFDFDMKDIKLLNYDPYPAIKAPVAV

Compound: Nc1nc2c(c(=O)[nH]1)N(C=O)C(CNc1ccc(C(=O)N[C@@H](CCC(=O)O)C(=O)O)cc1)CN2 (stereo partly drawn) [Leucovorin]
- time-to-progression (TTP) of disease [1]: prolongation of the time-to-progression (TTP)

Compound: Nc1nc2c(c(=O)[nH]1)N1CN(c3ccc(C(=O)N[C@@H](CCC(=O)[O-])C(=O)[O-])cc3)CC1CN2.[Ca+2] (stereo partly drawn) [CoFactor, [6R,S]-5,10-methylene-THF Ca salt]
- differences between the study arms (CoFactor vs leucovorin) with regard to efficacy or safety (colorectal cancer): no significant differences
- patients with clinical benefit, defined as stable disease or tumor response (pancreas cancer): 40%

Compound: Nc1nc2c(c(=O)[nH]1)N1CN(c3ccc(C(=O)N[C@@H](CCC(=O)O)C(=O)O)cc3)C[C@H]1CN2 [[6R]-MTHF, [6R]-5,10-methylenetetrahydrofolate]
- ORR [2, 3]: 50%
- patients with clinical benefit, defined as stable disease or partial response [2, 3]: 100%
- patients showing clinical benefit ([2]; 1st line patients, 16 weeks of treatment): 100%
- patients with clinical benefit, defined as stable disease or partial response ([2]; 2nd, 3rd or 5th line patients (25), after 8 weeks' treatment): 64%
- patients with partial response [2, 4]: 27%
- patients with progressive disease [2, 4]: 13%
- patients with stable disease [2, 4]: 60%
- clinical benefit, defined as stable disease or tumor response, treated patients ([2]; [6R]-MTHF combined with 5-FU): > 90%
- ORRs (objective response rates) ([2]; colorectal cancer patients, initial 5-FU followed by [6R]-MTHF): 50-60%
- progression in the cancer after the initial 8 weeks' treatment ([2]; eight 1st line patients, 16 weeks of treatment): no progression
- toxicity of 5-FU when combined with [6R]-MTHF, compared to 5-FU with other folate adjuvants ([2]; in vivo): reduced
- patients showing Partial Response at 16 weeks ([2]; of eight 1st line patients): 5 patients
- patients showing Stable Disease at 16 weeks ([2]; of eight 1st line patients): 3 patients
- treated patients with at least a 25% decrease in the sum of the diameters of target lesions ([2]; reference baseline sum diameters, with 5-FU): ~65%

Compound: Nc1nc2c(c(=O)[nH]1)N1CN(c3ccc(C(=O)N[C@@H](CCC(=O)O)C(=O)O)cc3)C[C@@H]1CN2 (single isomer, unassigned) [[6S]-isomer]
- effect on the natural [6R]-isomer as co-substrate for TS (Thymidylate Synthase): partial competitive inhibitor

— patent publication US12527796B2, “[6R]-MTHF—an efficient folate alternative in 5-fluorouracil based chemotherapy” (Isofol Medical AB, priority 2017, dated 2026)
